Data: EP3403652A1, “PREVENTION AND TREATMENT OF FIBROBLAST GROWTH FACTOR 23 (FGF23)-ASSOCIATED DISORDERS INCLUDING CHRONIC KIDNEY DISEASE (CKD)” (Veterinärmedizinische Universität Wien, priority 2017, dated 2018)

Legend:
renal distal tubules [1] = assay: Intracellular Na+ imaging by 2-photon microscopy in SBFI-loaded live kidney slices ex vivo; assay type: cell-based, mice; conditions: Klotho/VDR kidney slices; co-treatment with 200 ng/ml rFGF23, 2 h; closantel 30 ng/mL; BF 15 µM; PD173074 10 nM (iFGFR1) or 25 nM (FGFR1/3); iFGFR pan 120 nM
Description: (§1) The preparation of kidney slices for ex vivo experiments was performed as described in Andrukhova O et al. (EMBO J., 2014. 33, 229-246). Longitudinal 200-µm-thick live slices from freshly isolated kidneys of 3-month-old male WT and Klotho/VDR mice were prepared using a Leica VT1000 Vibratome (Leica Microsystems), and were used for ex vivo treatment with various substances as described below.
(§2) Longitudinal 200-µm-thick live slices of freshly isolated kidneys were prepared using a Leica VT1000 Vibratome (Leica Microsystems). For Na^+ imaging, the kidney slices of WT and Klotho/VDR mice were incubated for 60 min at 37°C with 2 µM of the sodium-sensitive dye SBFI (Molecular Probes), diluted in DMSO (Merck Millipore International) and 20% Pluronic (Merck Millipore International). For Ca^2+ imaging, the kidney slices were incubated for 30 min at 37°C with 2 µM of the calcium-sensitive dye Fluo-4 (Molecular Probes), diluted in DMSO and 20% Pluronic. Thereafter, the slices were washed two times for 20 min each in 0.1M PBS, and were subsequently incubated in vitro with vehicle (PBS), rFGF23 R176/179Q [(100 or 200 ng/ml) kindly provided by Amgen Inc., Thousand Oaks, CA, USA], PD173074 (Sigma-Aldrich) (10 nM for inhibiting FGFR1 and 25 nM for inhibiting FGFR1 and 3), pan FGFR inhibitor [(120 nM) FIIN1 hydrochloride, Tocris Bioscience, Bristol, UK)], WNK signalling inhibitor Closantel (30 ng/mL, generous gift of Dario R. Alessi) alone or combined at 37°C, 5% CO2 / 95% air humidified atmosphere for 2 h. […] For visualization of intracellular Na^+ and Ca^2+ content, SBFI or Fluo-4 were excited by a Ti:sapphire laser (Chameleon, Coherent Inc.) at 820 nm. Images (512 × 512 pixels) were acquired every 30 sec at a depth of 60 - 80 µm. Fluorescence images were analyzed using Image J software. The whole epithelial layer of the distal tubules was selected by manually drawing the region of interest (ROI) to quantify intracellular Na^+ and Ca^2+ levels. Fluorescence intensity was quantified in 4-9 ROIs per image, and the ratio between the fluorescence intensity and the ROI area was calculated for each tubule. This ratio was used for all subsequent calculations.
(§3) To gain more insight into the functional role of the rFGF23-induced increase in distal renal tubular ion channel expression and the FGF receptors involved, we performed intracellular Ca^2+ and Na^+ imaging by 2-photon microscopy in Fluo-4- or SFBI-loaded and subsequently rFGF23-treated (100 or 200 ng/ml for 2 h), 200-µm-thick renal slices prepared from WT and Klotho/VDR mice.
(§4) In this example it was assessed whether the Klotho-independent FGF23 signalling pathway is mediated through FGFR3 and/or 4, given that FGFR2 expression was low in distal renal tubules (Figure 12A). To dissect between the latter receptors, Klotho/VDR kidney slices were treated with rFGF23 alone or in combination with an FGFR1/FGFR3 inhibitor and the WNK signalling inhibitor closantel.

5/6 Nx (CKD) WT mice = assay: 5/6 nephrectomy CKD model, closantel orally via the diet over 8 weeks; assay type: in vivo
Description: The 5/6 nephrectomy (5/6 Nx) was performed in two stages (Leelahavanichkul A et al., Kidney Int. 78, 2010. 1136-1153) under isoflurane anesthesia (Fig. 1A). Pain was managed by s.c. injections of buprenorphine, metamizol and meloxicam. Additionally, the animals were treated for 3 days postsurgery with the analgesic piritramid via the drinking water, starting 6 h postsurgery. At the first stage (wk -1), the left kidney was decapsulated to avoid ureter and adrenal damage, and the upper and lower poles were partially resected via a left flank incision. Bleeding was controlled by microfibrillar collagen hemostasis (Avitene, Davol, Cranston, RI). The upper and lower poles were weighed. One week later, the entire right kidney was removed via a right flank incision and weighed. Animals with insufficient kidney resection as determined by a ratio of < 0.55 for the removed left kidney weight to the removed right kidney weight were euthanized. In the Sham surgery control mice, a left flank incision was performed at step 1, both poles of kidney were identified, then the flank incision was closed; a subsequent right flank incision was performed at step 2; the right renal artery was identified, then the flank incision was closed. After each flank incision, muscles and skin were repositioned and sewed. Mortality was tracked throughout the study. Necropsy was not performed on animals that died early.
For this experiment, WT Sham and 5/6-Nx mice were fed powdered rescue diet throughout the study. Closantel (Abcam) was dissolved in 100% ethanol (vehicle), and mixed into the moistened diet. To achieve a loading dose of 5 mg/kg body weight, the drug was mixed into the food at an initial concentration of 30 mg/kg diet. […] All mice were killed 8 weeks postsurgery.
Central arterial pressure and cardiac hemodynamic parameters were assessed using a SPR-671NR pressure catheter (1.4 French; Millar Instruments). Mice were anesthetized with 1.5% isoflurane in oxygen. The catheter was inserted into the ascending aorta for measurement of central arterial pressure. Parameters of LV function (i.e., maximum rate of the pressure rise, contractility index, end-diastolic pressure, and isovolumetric relaxation time) were measured by placing the catheter into the left ventricle. All pressure recordings were performed at the same anesthesia level. Hemodynamic measurements were recorded over 5 min, and traces were analyzed using LabChartPro software and a blood pressure (BP) module. After pressure measurements, all animals were euthanized.
The blood volume was determined from plasma volume and hematocrit as described in Lee H B & Blaufox M D (J. Nucl. Med., 1985. 26, 72-76). Plasma volume was determined by Evans blue dye dilution (Barron W M et al., J. Clin. Invest, 1984. 73, 923-932). Briefly, 20 µl of a 0.4% (wt/vol) solution of Evans blue (Sigma) in sterile physiological saline was injected into a tail vein. Blood samples (10 µl) were collected at 10 min and 30 min after injection to measure disappearance kinetics. Tubes were centrifuged and the hematocrit was recorded. Evans blue concentration in the plasma was measured in duplicate as optical density using the 2-wavelength method.
Total kidney homogenates, kidney cortex homogenates or total cell membrane preparations were solubilized in Laemmli sample buffer, fractionated on SDS- PAGE (30 µg/well) and transferred to a nitrocellulose membrane (Thermo Scientific). […] After washing, membranes were incubated with horseradish peroxidase-conjugated secondary antibodies (Amersham Life Sciences). Specific signal was visualized by ECL kit (Amersham Life Sciences). The protein bands were quantified by Image Quant 5.0 software (Molecular Dynamics). Loading of the samples was normalized to Ponceau S stain. The expression levels were normalized to β-actin expression. […]

renal distal tubules [2] = assay: Intracellular Ca2+ imaging by 2-photon microscopy in Fluo-4-loaded live kidney slices ex vivo; assay type: cell-based, mice; conditions: Klotho/VDR kidney slices; co-treatment with 200 ng/ml rFGF23, 2 h; ruthenium red 10 µM; closantel 30 ng/mL; PD173074 10 nM (iFGFR1) or 25 nM (FGFR1/3); iFGFR pan 120 nM
Description: as §1, §2, §3, §4

[3] = in vivo, cited from earlier work
[4] = target: WNK-regulated kinase SPAK (Ste20-like proline/alanine-rich kinase) (Homo sapiens, UniProt Q9UEW8); conditions: literature (Kikuchi et al. 2014); cited from earlier work
[5] = Western blotting, renal total homogenates, CKD mice, 8 weeks postsurgery
[6] = oral via diet once a week, 8 weeks postsurgery

Cc1cc(C(C#N)c2ccc(Cl)cc2)c(Cl)cc1NC(=O)c1cc(I)cc(I)c1O (centres unmarked) [closantel, N-[5-chloro-4-[(4-chlorophenyl)-cyanomethyl]-2-methylphenyl]-2-hydroxy-3,5-diiodobenzamide]
rFGF23-induced increase in intracellular Na^+ fluorescence (distal tubular Na^+ uptake) (renal distal tubules [1]): abrogated | urinary excretion of Na^+ (5/6 Nx (CKD) WT mice; CKD mice, 8 weeks postsurgery): increased | disease progression in CKD mice (5/6 Nx (CKD) WT mice; Figure 13 legend, oral via diet once a week over 8 weeks): largely protects | renal pNCC expression (5/6 Nx (CKD) WT mice; [5]): downregulation | renal pNKCC expression (5/6 Nx (CKD) WT mice; [5]): downregulation | renal pWNK1 expression (5/6 Nx (CKD) WT mice; [5]): downregulation | CKD-induced increase in HW/BW ratio (5/6 Nx (CKD) WT mice; [6]): largely prevented | CKD-induced increase in blood pressure (5/6 Nx (CKD) WT mice; [6]): largely prevented | CKD-induced increase in blood volume (5/6 Nx (CKD) WT mice; [6]): largely prevented | CKD-driven decline in GFR (5/6 Nx (CKD) WT mice; oral via diet once a week, loading dose 5 mg/kg body weight, 8 weeks postsurgery): largely prevented | rFGF23-induced increase in intracellular Ca^2+ fluorescence (distal tubular Ca^2+ uptake) (renal distal tubules [2]): abrogated | bioavailability ([3]; po): ~50% | plasma half-life [3]: 14 days | inhibition of the WNK-regulated kinase SPAK [4]: potent inhibitors
